Reference: ChEMBL document CHEMBL1201862, “PubChem BioAssay data set” (2004)
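Tested at 5 concentrations; 48 h exposure; 96-well plates; endpoints linearly interpolated, else capped at highest concentration. GI50 marks 50% less growth.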 Activity calls are given as the source filed them. No stated cut-off is given here; in the data, active = GI50 up to about 1.1 µM and inactive = higher.

Assays:
Test in all cases: growth of human tumour cells (NCI), 48 h
[1] = system: UACC-257
[2] = system: HT-29
[3] = system: NCI-H23
[4] = system: ACHN
[5] = system: HCT-15
[6] = system: NCI-H460
[7] = system: 786-0
[8] = system: NCI-H522
[9] = system: SF-295
[10] = system: M14
[11] = system: COLO 205
[12] = system: HOP-92
[13] = system: UO-31
[14] = system: EKVX
[15] = system: SF-539
[16] = system: OVCAR-8
[17] = system: OVCAR-3

Structure (SMILES): C=CCNC(=S)N1CC(C)C(=O)Nc2cc(Cl)ccc21 (centres undefined)
- GI50 [1]: > 100 µM (inactive)
- GI50 [2]: > 100 µM (inactive)
- GI50 [3]: > 100 µM (inactive)
- GI50 [4]: > 100 µM (inactive)
- GI50 [5]: > 100 µM
- GI50 [6]: > 100 µM (inactive)
- GI50 [7]: > 100 µM (inactive)
- GI50 [8]: > 100 µM (inactive)
- GI50 [9]: > 100 µM (inactive)
- GI50 [10]: > 100 µM (inactive)
- GI50 [11]: > 100 µM (inactive)
- GI50 [12]: > 100 µM (inactive)
- GI50 [13]: > 100 µM (inactive)
- GI50 [14]: > 100 µM (inactive)
- GI50 [15]: 76 µM (inactive)
- GI50 [16]: > 100 µM (inactive)

Structure (SMILES): COc1ccc2c(c1)C1(C=N2)CCN(C(C)=O)CC1
- GI50 [1]: > 100 µM (inactive)
- GI50 [2]: > 100 µM (inactive)
- GI50 [3]: > 100 µM (inactive)
- GI50 [4]: > 100 µM (inactive)
- GI50 [5]: > 100 µM
- GI50 [6]: > 100 µM (inactive)
- GI50 [7]: > 100 µM (inactive)
- GI50 [9]: > 100 µM (inactive)
- GI50 [10]: > 100 µM (inactive)
- GI50 [11]: > 100 µM (inactive)
- GI50 [12]: 87.9 µM (inactive)
- GI50 [14]: > 100 µM (inactive)
- GI50 [15]: > 100 µM (inactive)
- GI50 [16]: > 100 µM (inactive)
- GI50 [17]: > 100 µM (inactive)

Structure (SMILES): C=CCC(C)(C(=O)NCCC)C(=O)c1ccccc1O (centres undefined)
- GI50 [1]: > 100 µM (inactive)
- GI50 [4]: > 100 µM (inactive)
- GI50 [5]: > 100 µM
- GI50 [6]: > 100 µM (inactive)
- GI50 [7]: > 100 µM (inactive)
- GI50 [8]: > 100 µM (inactive)
- GI50 [10]: > 100 µM (inactive)
- GI50 [11]: > 100 µM (inactive)
- GI50 [13]: > 100 µM (inactive)
- GI50 [15]: > 100 µM (inactive)
- GI50 [16]: > 100 µM (inactive)
- GI50 [17]: > 100 µM (inactive)

Structure (SMILES): CC(=O)Nc1ccc(C(=O)NN2C(=O)C(Cl)C2c2ccc(O)cc2)cc1 (centres undefined)
- GI50 [1]: > 100 µM (inactive)
- GI50 [2]: > 100 µM (inactive)
- GI50 [4]: > 100 µM (inactive)
- GI50 [5]: > 100 µM
- GI50 [6]: > 100 µM (inactive)
- GI50 [7]: 72.4 µM (inactive)
- GI50 [8]: > 100 µM (inactive)
- GI50 [9]: > 100 µM (inactive)
- GI50 [10]: > 100 µM (inactive)
- GI50 [11]: > 100 µM (inactive)
- GI50 [13]: > 100 µM (inactive)
- GI50 [14]: > 100 µM (inactive)
- GI50 [15]: > 100 µM (inactive)
- GI50 [16]: 77.3 µM (inactive)
- GI50 [17]: > 100 µM (inactive)

Structure (SMILES): COc1cc(Br)c(CC2(C#N)c3ccccc3C3C(N2C(=O)c2ccccc2)C3(Cl)Cl)cc1OC (centres undefined)
- GI50 [1]: 15.8 µM (inactive)
- GI50 [2]: > 65.5 µM (inactive)
- GI50 [3]: > 65.5 µM (inactive)
- GI50 [4]: > 65.5 µM (inactive)
- GI50 [5]: > 65.5 µM
- GI50 [6]: 4.83 µM (inactive)
- GI50 [7]: > 65.5 µM (inactive)
- GI50 [8]: 3.52 µM (inactive)
- GI50 [10]: 42.4 µM (inactive)
- GI50 [11]: 10.4 µM (inactive)
- GI50 [12]: > 65.5 µM (inactive)
- GI50 [13]: 50.6 µM (inactive)
- GI50 [14]: > 65.5 µM (inactive)
- GI50 [15]: 48 µM (inactive)
- GI50 [16]: > 65.5 µM (inactive)
- GI50 [17]: 15.1 µM (inactive)

Structure (SMILES): OCCCCOC(c1ccccc1)(c1ccccc1)c1ccccc1
- GI50 [1]: > 100 µM (inactive)
- GI50 [2]: > 100 µM (inactive)
- GI50 [3]: > 100 µM (inactive)
- GI50 [4]: > 100 µM (inactive)
- GI50 [5]: > 100 µM
- GI50 [6]: > 100 µM (inactive)
- GI50 [7]: > 100 µM (inactive)
- GI50 [8]: > 100 µM (inactive)
- GI50 [9]: > 100 µM (inactive)
- GI50 [10]: > 100 µM (inactive)
- GI50 [11]: > 100 µM (inactive)
- GI50 [12]: > 100 µM (inactive)
- GI50 [13]: > 100 µM (inactive)
- GI50 [15]: > 100 µM (inactive)
- GI50 [16]: > 100 µM (inactive)
- GI50 [17]: > 100 µM (inactive)

Structure (SMILES): CCc1cc(Cc2ccc(C)c(NC(=O)C(=O)C3C(=O)NC(=O)NC3=O)c2CC)cc(C)c1NC(=O)C(=O)C1C(=O)NC(=O)NC1=O
- GI50 [1]: > 100 µM (inactive)
- GI50 [3]: > 100 µM (inactive)
- GI50 [4]: > 100 µM (inactive)
- GI50 [5]: > 100 µM
- GI50 [6]: > 100 µM (inactive)
- GI50 [7]: > 100 µM (inactive)
- GI50 [8]: > 100 µM (inactive)
- GI50 [10]: > 100 µM (inactive)
- GI50 [11]: > 100 µM (inactive)
- GI50 [13]: > 100 µM (inactive)
- GI50 [14]: > 100 µM (inactive)
- GI50 [15]: > 100 µM (inactive)
- GI50 [16]: > 100 µM (inactive)
- GI50 [17]: > 100 µM (inactive)
